Experimental findings from patent US20220324835A1 (Nurix Therapeutics, Inc., priority 2018, published 2022) are described below.

The target of experiment [1] is T1, Cbl-b (Homo sapiens, UniProt Q13191). In words: Cbl-b inhibition assay (Cbl-b activity assay, FRET, Biological Example 1; 100 mM NaCl, 60 nM Src kinase). The experiment is classed as biochemical. The settings on record: upper bound stated in text lists; read-out: IC50 values in the Cbl-b inhibition assay of Biological Example 1. Put shortly: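 Inhibitor activity is measured as reduced terbium-to-fluorescein FRET between streptavidin-terbium on biotinylated Cbl-b and Bodipy-fluorescein ubiquitin carried by an irreversible UbcH5B-Ub conjugate, binding of which depends on Src phosphorylation of Cbl-b.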

In experiment [2] the test system is T-cell. In words: IL-2 secretion from T-cells co-stimulated with anti-CD3 and anti-CD28 antibody (Biological Example 2). The experiment is classed as cell-based, human. The following applies: Homo sapiens, T-cell, fold change over baseline (anti-CD3/anti-CD28 stimulated T-cells without inhibitor), read-out: IL-2 secretion Anti-CD3/Anti-CD28 stimulation; for fold induction at 0.3 µM: 0.3 μM Cbl-b inhibitor; for fold induction at 1 µM: 1 μM Cbl-b inhibitor. A digest of the protocol: (§1)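 T-cells were stimulated with anti-CD3 antibody alone or with anti-CD28 antibody, in the presence or absence of Cbl-b inhibitor. IL-2 secretion or CD25 surface staining was measured, and values expressed as fold over the uninhibited baseline […].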

In experiment [3] the test system is T-cell. The experiment is described as follows: IL-2 secretion from T-cells stimulated with anti-CD3 antibody alone (Biological Example 2). In kind it is cell-based, human. The following applies: Homo sapiens, T-cell; 1 μM Cbl-b inhibitor; fold change over baseline (anti-CD3/anti-CD28 stimulated T-cells without inhibitor); read-out: IL-2 secretion Anti-CD3 stimulation.

Experiment [4] deals with T-cell. In words: CD25 cell surface staining on T-cells co-stimulated with anti-CD3 and anti-CD28 antibody (Biological Example 2). In kind it is cell-based, human. The settings on record: Homo sapiens, T-cell, fold change over baseline (anti-CD3/anti-CD28 stimulated T-cells without inhibitor), read-out: CD25 staining Anti-CD3/Anti-CD28 stimulation; for fold induction at 0.3 µM: 0.3 μM Cbl-b inhibitor; for fold induction at 1 µM: 1 μM Cbl-b inhibitor. Put shortly:
as §1

Experiment [5] has as its system T-cell. In words: CD25 cell surface staining on T-cells stimulated with anti-CD3 antibody alone (Biological Example 2). The settings on record: Homo sapiens, T-cell; 1 μM Cbl-b inhibitor; fold change over baseline (anti-CD3/anti-CD28 stimulated T-cells without inhibitor); read-out: CD25 staining Anti-CD3 stimulation. In kind it is cell-based, human.
For experiment [6], the target named is T1, Cbl-b. In words: Cbl-b activity assay (Cbl-b inhibition assay), TR-FRET of Cbl-b interaction with UbcH5B-Ub. The experiment is classed as biochemical. The following applies: assay buffer with 100 mM NaCl, 60 nM Src kinase; read-out: Cbl-b activity IC50. A digest of the protocol: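 UbcH5B (C85K) conjugated to N-terminally Bodipy-Fluorescein-labeled ubiquitin served as the fluorescent partner. After compound preincubation, Src kinase (60 nM) with 1 mM ATP and 5 mM MgCl2 (final) was added for 1.5 h, followed by a further 1 h incubation. Some values were obtained with 50 mM NaCl and 30 nM Src.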

The IC50 is the concentration at which inhibition is half-maximal.

T1 sequence (Q13191 36-427): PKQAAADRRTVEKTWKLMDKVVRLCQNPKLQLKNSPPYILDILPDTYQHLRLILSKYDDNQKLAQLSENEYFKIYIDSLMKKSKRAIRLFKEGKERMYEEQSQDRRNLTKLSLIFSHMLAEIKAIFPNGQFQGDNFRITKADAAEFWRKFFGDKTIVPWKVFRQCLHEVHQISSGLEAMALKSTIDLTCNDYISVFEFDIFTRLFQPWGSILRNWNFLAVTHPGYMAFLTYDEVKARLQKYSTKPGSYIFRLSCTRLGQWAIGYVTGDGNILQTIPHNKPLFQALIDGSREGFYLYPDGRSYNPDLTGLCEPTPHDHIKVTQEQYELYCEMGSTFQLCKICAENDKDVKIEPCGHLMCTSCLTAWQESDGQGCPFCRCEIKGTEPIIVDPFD

For the compound `Cc1nc2c(o1)CCN(Cc1cc3c(c(C(F)(F)F)c1)CN(c1cccc(C4(Cc5nncn5C)COC4)c1)C3=O)C2` [Example 649, 2-(3-(3-((4-methyl-4H-1,2,4-triazol-3-yl)methyl)oxetan-3-yl)phenyl)-6-((2-methyl-6,7-dihydrooxazolo[4,5-c]pyridin-5(4H)-yl)methyl)-4-(trifluoromethyl)isoindolin-1-one], the IC50 at Cbl-b [1] is at most 100 nM; on Cbl-b [6], below 100 nM. Further, the fold induction at 0.3 µM in the experiment with T-cell [2] lay in the range of 5 to 7.5; in the experiment with T-cell [4], 1.01 to 1.3. For the same compound, the fold induction at 1 µM is above 7.5 in the experiment with T-cell [2], above 0.201 in the experiment on T-cell [3], 1.31 to 1.5 in the experiment with T-cell [4] and above 1 in the experiment on T-cell [5].
Take `Cn1cnnc1CC1(c2cccc(N3Cc4c(cc(CN5CCc6ccccc6C5)cc4C(F)(F)F)C3=O)c2)COC1` [Example 650, 6-((3,4-dihydroisoquinolin-2(1H)-yl)methyl)-2-(3-(3-((4-methyl-4H-1,2,4-triazol-3-yl)methyl)oxetan-3-yl)phenyl)-4-(trifluoromethyl)isoindolin-1-one]: the IC50 is at most 100 nM at Cbl-b [1] and below 100 nM on Cbl-b [6]. The fold induction at 0.3 µM in the experiment on T-cell [2] fell in the range of 5 to 7.5; in the experiment with T-cell [4], 1.01 to 1.3. Also, the fold induction at 1 µM was above 7.5 with T-cell [2], above 0.201 in the experiment on T-cell [3], 1.31 to 1.5 in the experiment on T-cell [4] and above 1 in the experiment on T-cell [5].
Regarding `Cn1cnnc1CC1(c2cccc(N3Cc4c(cc(CN5CCCc6c5cnn6C)cc4C(F)(F)F)C3=O)c2)COC1` [Example 651], the IC50 is at most 100 nM on Cbl-b [1] and below 100 nM on Cbl-b [6]. For the same compound, the fold induction at 0.3 µM is 5 to 7.5 in the experiment on T-cell [2] and 1.01 to 1.3 in the experiment on T-cell [4]. The fold induction at 1 µM is above 7.5 in the experiment on T-cell [2], above 0.201 in the experiment on T-cell [3], 1.01 to 1.3 with T-cell [4] and above 1 in the experiment on T-cell [5].
Consider `Cn1cnnc1CC1(c2cccc(N3Cc4c(cc(CN5Cc6cccc(F)c6C5)cc4C(F)(F)F)C3=O)c2)COC1` [Example 653, 6-((4-fluoroisoindolin-2-yl)methyl)-2-(3-(3-((4-methyl-4H-1,2,4-triazol-3-yl)methyl)oxetan-3-yl)phenyl)-4-(trifluoromethyl)isoindolin-1-one], for which the figures for the IC50 at Cbl-b [1] and at Cbl-b [6] were at most 100 nM and below 100 nM, respectively. Besides, the values for the fold induction at 0.3 µM in the experiment with T-cell [2] and with T-cell [4] were 2.51 to 5 and 1.31 to 1.5, respectively. Moreover, the fold induction at 1 µM with T-cell [2] is above 7.5; with T-cell [3] it was above 0.201; in the experiment on T-cell [4] it was 1.31 to 1.5; in the experiment with T-cell [5] it was above 1.
Take `Cn1cnnc1CC1(c2cccc(N3Cc4c(cc(CN5Cc6ccccc6C5)cc4C(F)(F)F)C3=O)c2)COC1` [Example 654, 6-(isoindolin-2-ylmethyl)-2-(3-(3-((4-methyl-4H-1,2,4-triazol-3-yl)methyl)oxetan-3-yl)phenyl)-4-(trifluoromethyl)isoindolin-1-one]: the IC50 was at most 100 nM at Cbl-b [1] and below 100 nM at Cbl-b [6]. Moreover, the fold induction at 0.3 µM is 5 to 7.5 in the experiment with T-cell [2] and 1.31 to 1.5 in the experiment on T-cell [4]. In addition, the fold induction at 1 µM is above 7.5 in the experiment on T-cell [2], above 0.201 with T-cell [3], 1.31 to 1.5 with T-cell [4] and above 1 with T-cell [5].
On to `Cn1cnnc1CC1(c2cccc(N3Cc4c(cc(CN5Cc6ccc(F)cc6C5)cc4C(F)(F)F)C3=O)c2)COC1` [Example 655, 6-((5-fluoroisoindolin-2-yl)methyl)-2-(3-(3-((4-methyl-4H-1,2,4-triazol-3-yl)methyl)oxetan-3-yl)phenyl)-4-(trifluoromethyl)isoindolin-1-one], for which the IC50 at Cbl-b [1] was at most 100 nM; at Cbl-b [6], below 100 nM. Besides, the fold induction at 0.3 µM is 5 to 7.5 in the experiment with T-cell [2] and 1.31 to 1.5 in the experiment on T-cell [4]. Also, the fold induction at 1 µM in the experiment on T-cell [2] was above 7.5; with T-cell [3], above 0.201; in the experiment with T-cell [4] it was 1.31 to 1.5; in the experiment on T-cell [5], above 1.
As to `COc1ccc2c(c1)CN(Cc1cc3c(c(C(F)(F)F)c1)CN(c1cccc(C4(Cc5nncn5C)COC4)c1)C3=O)C2` [Example 656, 6-((5-methoxyisoindolin-2-yl)methyl)-2-(3-(3-((4-methyl-4H-1,2,4-triazol-3-yl)methyl)oxetan-3-yl)phenyl)-4-(trifluoromethyl)isoindolin-1-one], the IC50 at Cbl-b [1] is at most 100 nM; on Cbl-b [6], below 100 nM. The values for the fold induction at 0.3 µM in the experiment with T-cell [2] and with T-cell [4] were above 7.5 and 1.31 to 1.5, respectively. In addition, the fold induction at 1 µM was above 7.5 with T-cell [2], above 0.201 in the experiment on T-cell [3], 1.31 to 1.5 in the experiment with T-cell [4] and above 1 with T-cell [5].
As for `Cn1cnnc1CC1(c2cccc(N3Cc4c(cc(CN5Cc6cccnc6C5)cc4C(F)(F)F)C3=O)c2)COC1` [Example 660, 6-((5,7-dihydro-6H-pyrrolo[3,4-b]pyridin-6-yl)methyl)-2-(3-(3-((4-methyl-4H-1,2,4-triazol-3-yl)methyl)oxetan-3-yl)phenyl)-4-(trifluoromethyl)isoindolin-1-one], the IC50 at Cbl-b [1] is at most 100 nM; at Cbl-b [6], below 100 nM. Also, the figures for the fold induction at 0.3 µM in the experiment with T-cell [2] and in the experiment with T-cell [4] were 2.51 to 5 and 1.31 to 1.5, respectively. Further, the fold induction at 1 µM is above 7.5 in the experiment with T-cell [2], above 0.201 with T-cell [3], 1.31 to 1.5 with T-cell [4] and above 1 with T-cell [5].
Turning to `Cn1cnnc1CC1(c2cccc(N3Cc4c(cc(CN5CC[C@H](c6ccccc6)C5)cc4C(F)(F)F)C3=O)c2)COC1` [Example 662a, (R)-2-(3-(3-((4-methyl-4H-1,2,4-triazol-3-yl)methyl)oxetan-3-yl)phenyl)-6-((3-phenylpyrrolidin-1-yl)methyl)-4-(trifluoromethyl)isoindolin-1-one], the IC50 on Cbl-b [1] was at most 100 nM; at Cbl-b [6] it was below 100 nM. Besides, the figures for the fold induction at 0.3 µM with T-cell [2] and in the experiment on T-cell [4] were 5 to 7.5 and 1.01 to 1.3, respectively. The fold induction at 1 µM in the experiment with T-cell [2] was above 7.5; in the experiment with T-cell [3], above 0.201; in the experiment with T-cell [4], 1.01 to 1.3; in the experiment on T-cell [5], 0.801 to 1.
Regarding `C[C@H]1CN(Cc2cc3c(c(C(F)(F)F)c2)CN(c2cccc(C4(Cc5nncn5C)COC4)c2)C3=O)CCO1` [Example 663a, (S)-2-(3-(3-((4-methyl-4H-1,2,4-triazol-3-yl)methyl)oxetan-3-yl)phenyl)-6-((2-methylmorpholino)methyl)-4-(trifluoromethyl)isoindolin-1-one], the IC50 on Cbl-b [1] is at most 100 nM; at Cbl-b [6], below 100 nM. Besides, the values for the fold induction at 0.3 µM in the experiment on T-cell [2] and with T-cell [4] were 5 to 7.5 and 1.31 to 1.5, respectively. The fold induction at 1 µM was above 7.5 in the experiment with T-cell [2], above 0.201 in the experiment on T-cell [3], 1.31 to 1.5 with T-cell [4] and above 1 in the experiment on T-cell [5].
Take `C[C@H](c1cc2c(c(C(F)(F)F)c1)CN(c1cccc(C3(Cc4nncn4C)COC3)c1)C2=O)N1CC(F)C1` [Example 668a, (R)-6-(1-(3-fluoroazetidin-1-yl)ethyl)-2-(3-(3-((4-methyl-4H-1,2,4-triazol-3-yl)methyl)oxetan-3-yl)phenyl)-4-(trifluoromethyl)isoindolin-1-one]: the IC50 on Cbl-b [1] was at most 100 nM; at Cbl-b [6], below 100 nM. Moreover, the results for the fold induction at 0.3 µM in the experiment on T-cell [2] and in the experiment with T-cell [4] were 2.51 to 5 and 1.31 to 1.5, respectively. For the same compound, the fold induction at 1 µM in the experiment with T-cell [2] was 5 to 7.5; with T-cell [3] it was 0.101 to 0.15; in the experiment on T-cell [4] it was 1.51 to 1.75; in the experiment on T-cell [5] it was above 1.
Take `C[C@@H](c1cc2c(c(C(F)(F)F)c1)CN(c1cccc(C3(Cc4nncn4C)COC3)c1)C2=O)N1CC(F)C1` [Example 668b, (S)-6-(1-(3-fluoroazetidin-1-yl)ethyl)-2-(3-(3-((4-methyl-4H-1,2,4-triazol-3-yl)methyl)oxetan-3-yl)phenyl)-4-(trifluoromethyl)isoindolin-1-one]: the IC50 at Cbl-b [1] was at most 100 nM; on Cbl-b [6], below 100 nM. For the same compound, the fold induction at 0.3 µM in the experiment on T-cell [2] was 5 to 7.5; in the experiment with T-cell [4], 1.31 to 1.5. Further, the fold induction at 1 µM in the experiment on T-cell [2] was above 7.5; in the experiment on T-cell [3], 0.151 to 0.2; with T-cell [4] it was 1.51 to 1.75; in the experiment with T-cell [5], above 1.
